According to PubChem BioAssay (NCI):
Several values for one entry are separate records, joined by “and”; a condition that tells them apart may be missing. Identical values can stand only once.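 Five compound concentrations were applied to cells in 96-well plates for 48 hours; endpoints were derived by simple linear interpolation of the resulting dose-response curve. GI50 marks 50% less growth. At the TGI there is no net growth.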

Experiments:
Experiment in all cases: inhibition of tumour cell growth, NCI panel, 48 h
CCRF-CEM leukemia = test system: CCRF-CEM leukemia
A549 NSCLC = test system: A549 NSCLC
SNB-19 CNS = test system: SNB-19 CNS
HOP-62 NSCLC = test system: HOP-62 NSCLC
SF-295 CNS = test system: SF-295 CNS
MDA-MB-435 = test system: MDA-MB-435
K-562 leukemia = test system: K-562 leukemia
OVCAR-4 ovarian = test system: OVCAR-4 ovarian
SK-MEL-28 melanoma = test system: SK-MEL-28 melanoma
OVCAR-3 ovarian = test system: OVCAR-3 ovarian

Compound | GI50 (CCRF-CEM leukemia) | TGI (CCRF-CEM leukemia) | GI50 (A549 NSCLC) | TGI (A549 NSCLC) | GI50 (SNB-19 CNS) | TGI (SNB-19 CNS) | GI50 (HOP-62 NSCLC) | TGI (HOP-62 NSCLC) | GI50 (SF-295 CNS) | TGI (SF-295 CNS) | GI50 (MDA-MB-435) | TGI (MDA-MB-435) | GI50 (K-562 leukemia) | TGI (K-562 leukemia) | TGI (OVCAR-4 ovarian) | TGI (SK-MEL-28 melanoma) | TGI (OVCAR-3 ovarian) | GI50 (SK-MEL-28 melanoma) | GI50 (OVCAR-3 ovarian) | GI50 (OVCAR-4 ovarian)
COC(=O)[C@@H](C)C[C@H](Cc1ccccc1)NC(=O)c1csc([C@@H](C[C@H](C(C)C)N(C)C(=O)[C@@H](NC(=O)[C@H]2CCCCN2C)C2CCCCC2)OC(C)=O)n1 | 0.00195 µM and 0.0025 µM | 5.8 µM | 0.0022 µM and 0.0025 µM | > 25 µM | 0.000718 µM and 0.0025 µM | > 25 µM | 0.00213 µM and 0.0025 µM | > 25 µM | 0.000346 µM and 0.0025 µM | > 25 µM | < 0.0001 µM | 0.000368 µM | 0.000374 µM and 0.0025 µM | 4.33 µM | > 25 µM |  |  |  |  | 
CN[C@@H](C)[C@@H](NC)c1ccccc1 |  | > 100 µM |  | > 100 µM |  |  |  |  |  | > 100 µM |  |  |  | > 100 µM |  | > 100 µM | > 100 µM |  |  | 
C#COc1cccc(Nc2c(C#N)cnc3ncc(NC(=O)CCl)cc23)c1 | 3.72 µM | > 62.5 µM | 46.9 µM | > 62.5 µM | 32.1 µM | > 62.5 µM | > 62.5 µM | > 62.5 µM | > 62.5 µM | > 62.5 µM | > 62.5 µM | > 62.5 µM | 25.9 µM | > 62.5 µM |  | > 62.5 µM | > 62.5 µM | > 62.5 µM | 25.3 µM | 
COC(=O)/C=C/c1c(CC=C(C)C)ncn1C |  | > 100 µM |  | > 100 µM |  | > 100 µM |  | > 100 µM |  | > 100 µM |  |  |  | > 100 µM | > 100 µM | > 100 µM | 59 µM |  |  | 
Cc1cc(NS(=O)(=O)c2ccc(Nc3c4ccccc4nc4c(C(=O)N5CCN(CCO)CC5)ccc(Cl)c34)cc2)no1 |  | 74 µM |  | > 100 µM |  | > 100 µM |  | > 100 µM |  | > 100 µM |  |  |  | > 100 µM | > 100 µM | > 100 µM | > 100 µM |  |  | 
S=c1[nH]c(=S)c2nnn(-c3ccccc3)c2[nH]1 |  | > 100 µM |  | > 100 µM |  | > 100 µM |  | > 100 µM |  |  |  |  |  | > 100 µM |  | > 100 µM | > 100 µM |  |  | 
CC(C)N(CCn1c2c3ccccc3ccc2c2oc(=O)c3ccccc3c21)C(C)C |  | > 100 µM |  | > 100 µM |  | > 100 µM |  | 98.7 µM |  | > 95.1 µM |  |  |  | > 100 µM | > 100 µM | > 100 µM | > 100 µM |  |  | 
CC(C)C(=O)Nc1nc2c(ncn2C2OC(CO)C(O)C2O)c(=O)[nH]1 (stereo not drawn) |  | > 100 µM |  | > 100 µM |  |  |  | > 100 µM |  | > 100 µM |  |  |  | > 100 µM | > 100 µM | > 100 µM | > 100 µM |  |  | 
CC(=O)[O][Ga]([Br])[O]C(C)=O | > 100 µM | > 100 µM | > 100 µM | > 100 µM | > 100 µM | > 100 µM |  |  | > 100 µM | > 100 µM |  |  | > 100 µM | > 100 µM | > 100 µM | > 100 µM | > 100 µM | > 100 µM | > 100 µM | > 100 µM
Cc1nc(-[n+]2nc(-c3ccncc3)nn2-c2ccccc2)sc1C |  | > 100 µM |  | > 100 µM |  | > 100 µM |  | 31.9 µM |  | > 100 µM |  | > 100 µM |  | > 100 µM |  | > 100 µM |  |  |  | 
COC(=O)/C=C1\CCC(C)O1 (stereo not drawn) |  | > 100 µM |  | > 100 µM |  | > 100 µM |  | > 100 µM |  | > 100 µM |  |  |  | > 100 µM | > 100 µM |  | > 100 µM |  |  | 
